Data as given in paper PMC9053591 (RSC Advances, 2020).
Several values for one entry are separate records, joined by “and”; a condition that tells them apart may be missing. Identical values can stand only once. Counter-ions that a name gives are not always drawn.

Experiments:
AChE from electric eel = AChE from electric eel (Electrophorus electricus, UniProt O42275); experiment: AChE inhibition, Ellman's method; assay type: biochemical; settings: IC50 ± SD (μM) AChE, means ± SD of three experiments
Sequence of AChE from electric eel (O42275 24-633): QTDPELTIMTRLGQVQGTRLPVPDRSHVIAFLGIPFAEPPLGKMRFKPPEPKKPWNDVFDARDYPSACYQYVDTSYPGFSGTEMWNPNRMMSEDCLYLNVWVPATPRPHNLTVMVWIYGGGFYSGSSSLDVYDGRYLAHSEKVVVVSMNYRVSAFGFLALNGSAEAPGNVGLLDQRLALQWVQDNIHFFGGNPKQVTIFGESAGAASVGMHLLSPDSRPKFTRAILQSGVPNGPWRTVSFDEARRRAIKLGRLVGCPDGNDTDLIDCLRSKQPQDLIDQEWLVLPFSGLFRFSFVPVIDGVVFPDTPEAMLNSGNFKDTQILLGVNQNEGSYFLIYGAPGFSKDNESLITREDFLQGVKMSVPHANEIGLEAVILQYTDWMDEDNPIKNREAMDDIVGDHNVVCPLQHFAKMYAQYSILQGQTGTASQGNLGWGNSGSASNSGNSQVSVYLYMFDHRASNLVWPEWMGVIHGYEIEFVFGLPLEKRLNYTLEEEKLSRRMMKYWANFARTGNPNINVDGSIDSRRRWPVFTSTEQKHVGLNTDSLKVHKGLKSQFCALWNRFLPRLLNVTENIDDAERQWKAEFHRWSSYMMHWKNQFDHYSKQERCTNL

BuChE from equine serum = BuChE from equine serum (Equus caballus, UniProt P81908); experiment: BuChE inhibition, Ellman's method; assay type: biochemical
Sequence of BuChE from equine serum (P81908 whole entry): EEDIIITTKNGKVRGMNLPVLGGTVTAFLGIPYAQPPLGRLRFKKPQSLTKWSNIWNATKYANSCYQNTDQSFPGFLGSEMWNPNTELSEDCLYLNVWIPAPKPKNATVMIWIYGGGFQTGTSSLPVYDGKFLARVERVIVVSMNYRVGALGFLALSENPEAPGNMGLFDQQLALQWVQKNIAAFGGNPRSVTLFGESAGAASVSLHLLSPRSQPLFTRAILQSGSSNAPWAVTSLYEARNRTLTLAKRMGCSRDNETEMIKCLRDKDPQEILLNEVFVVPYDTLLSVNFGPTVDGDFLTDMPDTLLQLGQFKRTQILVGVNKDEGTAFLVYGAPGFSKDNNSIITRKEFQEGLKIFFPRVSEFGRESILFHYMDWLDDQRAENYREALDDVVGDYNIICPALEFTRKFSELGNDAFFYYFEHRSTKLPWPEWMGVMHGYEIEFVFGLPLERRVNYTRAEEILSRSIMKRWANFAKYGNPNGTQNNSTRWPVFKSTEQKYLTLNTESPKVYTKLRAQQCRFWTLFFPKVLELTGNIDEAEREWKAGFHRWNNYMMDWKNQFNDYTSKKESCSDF

[1] = test system: scopolamine induced mice model of dementia; experiment: Elevated plus maze; assay type: in vivo; settings: n = 6, SEM
scopolamine induced mice = experiment: Social recognition test, scopolamine induced mice; assay type: in vivo
[2] = In vitro cytotoxicity, MTT assay; assay type: cell-based, human; settings: human, SH-SY5Y cells
SH-SY5Y cells [3] = experiment: In vitro cytotoxicity, MTT assay; assay type: cell-based, human; settings: 1 and 5 μM, 24 h, MTT
Aβ1-42 [4] = molecular target: T1, Aβ1-42 (Homo sapiens, UniProt P05067); experiment: Confocal laser scanning microscopy of Aβ1-42 aggregation inhibition; assay type: biochemical; settings: Aβ1-42 co-incubated with compound, 48 h, 37 °C
T1 sequence (P05067 672-713): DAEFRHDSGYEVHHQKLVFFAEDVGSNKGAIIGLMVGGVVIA

Aβ1-42 [5] = molecular target: T1, Aβ1-42; experiment: TEM study of inhibition of Aβ1-42 fibril formation; assay type: biochemical; settings: Aβ1-42 50 μM, compound 50 μM, 37 °C, 48 h
AChE = AChE (Electrophorus electricus, UniProt O42275); experiment: Kinetic characterization of AChE inhibition, Lineweaver–Burk plot; assay type: biochemical; settings: Lineweaver–Burk reciprocal plots; compound at 2, 6 and 8 μM
Sequence of AChE (O42275 24-633): as the sequence (O42275 24-633) above

SH-SY5Y cells [6] = experiment: Neuroprotection against H2O2-induced death, MTT assay; settings: 200 μM H2O2 for 24 h

With `CS(=O)(=O)c1ccc2nc(NC(=O)CCN3CCN(c4ccccc4)CC3)sc2c1` [Compound 4, N-(6-Methanesulfonyl-benzothiazol-2-yl)-3-(4-phenyl-piperazin-1-yl)-propionamide] the IC50 (AChE from electric eel) was 24.1 ± 0.721 µM and the IC50 (BuChE from equine serum) was > 100 µM.

In the case of `CS(=O)(=O)c1ccc2nc(NC(=O)CCN3CCN(c4ccc(F)cc4)CC3)sc2c1` [Compound 5, 3-[4-(4-Fluoro-phenyl)-piperazin-1-yl]-N-(6-methanesulfonyl-benzothiazol-2-yl)-propionamide], the IC50 (AChE from electric eel) is reported as 18.3 ± 0.777 µM and the IC50 (BuChE from equine serum) is reported as > 100 µM.

In the case of `CS(=O)(=O)c1ccc2nc(NC(=O)CCN3CCN(c4ccc(Cl)cc4)CC3)sc2c1` [Compound 6, 3-[4-(4-Chloro-phenyl)-piperazin-1-yl]-N-(6-methanesulfonyl-benzothiazol-2-yl)-propionamide], the IC50 (AChE from electric eel) is reported as 13 ± 0.813 µM and the IC50 (BuChE from equine serum) is reported as > 100 µM.

In the case of `CS(=O)(=O)c1ccc2nc(NC(=O)CCN3CCN(c4ccc([N+](=O)[O-])cc4)CC3)sc2c1` [Compound 7, N-(6-Methanesulfonyl-benzothiazol-2-yl)-3-[4-(4-nitro-phenyl)-piperazin-1-yl]-propionamide], the IC50 (AChE from electric eel) is reported as 11.3 ± 1.8 µM and the IC50 (BuChE from equine serum) is reported as > 100 µM.

For `Cc1ccc(N2CCN(CCC(=O)Nc3nc4ccc(S(C)(=O)=O)cc4s3)CC2)cc1` [Compound 8, N-(6-Methanesulfonyl-benzothiazol-2-yl)-3-(4-p-tolyl-piperazin-1-yl)-propionamide], the IC50 (AChE from electric eel) was 20.2 ± 1.44 µM and the IC50 (BuChE from equine serum) was > 100 µM.

In the case of `COc1ccc(N2CCN(CCC(=O)Nc3nc4ccc(S(C)(=O)=O)cc4s3)CC2)cc1` [Compound 9, N-(6-Methanesulfonyl-benzothiazol-2-yl)-3-[4-(4-methoxy-phenyl)-piperazin-1-yl]-propionamide], the IC50 (AChE from electric eel) is reported as 14.5 ± 1.03 µM and the IC50 (BuChE from equine serum) is reported as > 100 µM.

For `CS(=O)(=O)c1ccc2nc(NC(=O)CCN3CCN(Cc4ccccc4)CC3)sc2c1` [Compound 10, 3-(4-Benzyl-piperazin-1-yl)-N-(6-methanesulfonyl-benzothiazol-2-yl)-propionamide], the IC50 (AChE from electric eel) was 7.83 µM and the IC50 (BuChE from equine serum) was > 100 µM.

With `CS(=O)(=O)c1ccc2nc(NC(=O)CCN3CCN(C(c4ccccc4)c4ccccc4)CC3)sc2c1` [Compound 11, 3-(4-Benzhydryl-piperazin-1-yl)-N-(6-methanesulfonyl-benzothiazol-2-yl)-propionamide] the IC50 (AChE from electric eel) was 4.54 µM and 4.55 µM and the IC50 (BuChE from equine serum) was > 100 µM.

For `CS(=O)(=O)c1ccc2nc(NC(=O)CCN3CCN(c4ccccn4)CC3)sc2c1` [Compound 12, N-(6-Methanesulfonyl-benzothiazol-2-yl)-3-(4-pyridin-2-yl-piperazin-1-yl)-propionamide], the “Transfer latency (TL)” value ([1]; scopolamine 3 mg kg−1 + compound 10 mg kg−1 i.p., 7 days) was 12.81 ± 2.08 s, the “Transfer latency (TL)” value ([1]; scopolamine 3 mg kg−1 + compound 20 mg kg−1 i.p., 7 days) was 12.62 ± 2.60 s and the IC50 (AChE from electric eel) was 2.31 µM and 2.32 µM. The “T2/T1 ratio (second interaction trial/first interaction trial)” value (scopolamine induced mice; scopolamine + compound 20 mg kg−1, mean SEM of 6 animals) was 0.377 ± 0.00072, the viability at 24 h, 10 µM [2] was > 67% and the Cytotoxicity (SH-SY5Y cells [3]) was “no cytotoxicity”. For the same compound, the “Aβ1-42 aggregation by confocal laser scanning microscopy (ThT fluorescence)” value (Aβ1-42 [4]) was “proficiently prevents Aβ1-42 fibril formation”, the “Aβ1-42 fibril formation by TEM” value (Aβ1-42 [5]) was “small dissociated aggregates and no characteristic fibrils of Aβ1-42” and the IC50 (BuChE from equine serum) was > 100 µM. For the same compound, the “Type of AChE inhibition” value (AChE) was “uncompetitive type of inhibition”.

For `CS(=O)(=O)c1ccc2nc(NC(=O)CCN3CCN(c4ncccn4)CC3)sc2c1` [Compound 13, N-(6-Methanesulfonyl-benzothiazol-2-yl)-3-(4-pyrimidin-2-yl-piperazin-1-yl)-propionamide], the IC50 (AChE from electric eel) was 10.9 ± 0.657 µM and the IC50 (BuChE from equine serum) was > 100 µM.

For `CS(=O)(=O)c1ccc2nc(NC(=O)CCN3CCN(C(=O)c4ccco4)CC3)sc2c1` [Compound 14, 3-[4-(Furan-2-carbonyl)-piperazin-1-yl]-N-(6-methanesulfonyl-benzothiazol-2-yl)-propionamide], the IC50 (AChE from electric eel) was 14.6 ± 0.438 µM and the IC50 (BuChE from equine serum) was > 100 µM.

For `CS(=O)(=O)c1ccc2nc(NC(=O)CCN3CCN(C(=O)OCc4ccccc4)CC3)sc2c1` [Compound 15, 4-[2-(6-Methanesulfonyl-benzothiazol-2-ylcarbamoyl)-ethyl]-piperazine-1-carboxylic acid benzyl ester], the IC50 (AChE from electric eel) was 19.5 ± 0.452 µM and the IC50 (BuChE from equine serum) was > 100 µM.

In the case of `CS(=O)(=O)c1ccc2nc(NC(=O)CCN3CCN(Cc4ccc5c(c4)OCO5)CC3)sc2c1` [Compound 16, 3-(4-Benzo[1,3]dioxol-5-ylmethyl-piperazin-1-yl)-N-(6-methanesulfonyl-benzothiazol-2-yl)-propionamide], the IC50 (AChE from electric eel) is reported as 5.24 µM and the IC50 (BuChE from equine serum) is reported as > 100 µM.

With `CS(=O)(=O)c1ccc2nc(NC(=O)CCN3CCN(c4ccc(C(F)(F)F)cc4)CC3)sc2c1` [Compound 17, N-(6-Methanesulfonyl-benzothiazol-2-yl)-3-[4-(4-trifluoromethyl-phenyl)-piperazin-1-yl]-propionamide] the IC50 (AChE from electric eel) was 26.4 ± 0.551 µM and the IC50 (BuChE from equine serum) was > 100 µM.

For `OO` [Compound H2O2, hydrogen peroxide], the “Cell viability with H2O2 alone” value (SH-SY5Y cells [6]) was 54.90%.

With `COc1cc(/C=C/C(=O)CC(=O)/C=C/c2ccc(O)c(OC)c2)ccc1O` [Curcumin, reference compound] the “Aβ1-42 fibril formation by TEM” value (Aβ1-42 [5]) was “small dissociated aggregates and no characteristic fibrils of Aβ1-42”.

In the case of `COc1cc2c(cc1OC)C(=O)C(CC1CCN(Cc3ccccc3)CC1)C2` (centres unmarked) [Donepezil, reference compound], the “Transfer latency (TL)” value ([1]; scopolamine 3 mg kg−1 + donepezil 5 mg kg−1 i.p., 7 days) is reported as 15.08 ± 1 s.

In the case of `CN1[C@@H]2C[C@@H](OC(=O)[C@H](CO)c3ccccc3)C[C@H]1[C@@H]1O[C@@H]12` [scopolamine, Scopolamine hydrobromide, reference compound], the “Transfer latency (TL)” value ([1]; scopolamine 3 mg kg−1 i.p. alone, retention trial) is reported as 22.00 ± 0.81 s and the “T2/T1 ratio (second interaction trial/first interaction trial)” value (scopolamine induced mice; scopolamine 3 mg kg−1 alone, mean SEM of 6 animals) is reported as 1.103 ± 0.037.
